Data reported in ChEMBL document CHEMBL1201862, “PubChem BioAssay data set” (2004).
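Five concentrations, 48 hours, 96-well plates. Abbreviation: GI50, concentration required for 50% inhibition of growth.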 Active and inactive are the calls of the source. No stated cut-off is given here; in the data, active = GI50 up to about 1.1 µM and inactive = higher.

Tests used:
Experiment in all cases: NCI anticancer screen, dose series, 48 h
SR = system: SR
HCC 2998 = system: HCC 2998
PC-3 = system: PC-3
NCI-H23 = system: NCI-H23
UO-31 = system: UO-31
SK-MEL-5 = system: SK-MEL-5
EKVX = system: EKVX
HCT-15 = system: HCT-15
SN12C = system: SN12C
SK-MEL-2 = system: SK-MEL-2
HOP-62 = system: HOP-62
DU-145 = system: DU-145
HCT-116 = system: HCT-116
U-251 = system: U-251
TK-10 = system: TK-10
A549 = system: A549
LOX IMVI = system: LOX IMVI
786-0 = system: 786-0
NCI-H522 = system: NCI-H522
T47D = system: T47D
A498 = system: A498
CAKI-1 = system: CAKI-1
HT-29 = system: HT-29
UACC-62 = system: UACC-62
MDA-N = system: MDA-N
OVCAR-3 = system: OVCAR-3
Hs-578T = system: Hs-578T
UACC-257 = system: UACC-257
SNB-19 = system: SNB-19
OVCAR-8 = system: OVCAR-8
HOP-92 = system: HOP-92
K562 = system: K562
Malme-3M = system: Malme-3M
SF-295 = system: SF-295
SNB-75 = system: SNB-75
MDA-MB-435 = system: MDA-MB-435
M14 = system: M14
ACHN = system: ACHN
IGROV-1 = system: IGROV-1
OVCAR-5 = system: OVCAR-5
BT-549 = system: BT-549
MDA-MB-231 = system: MDA-MB-231
NCI-H460 = system: NCI-H460
RXF 393 = system: RXF 393
SK-MEL-28 = system: SK-MEL-28
MOLT-4 = system: MOLT-4
NCI/ADR-RES = system: NCI/ADR-RES
OVCAR-4 = system: OVCAR-4
KM12 = system: KM12
SW-620 = system: SW-620
SF-268 = system: SF-268
NCI-H226 = system: NCI-H226
CCRF-CEM = system: CCRF-CEM
COLO 205 = system: COLO 205
SF-539 = system: SF-539
SK-OV-3 = system: SK-OV-3
RPMI-8226 = system: RPMI-8226

Question: Which results are given for `CC(CCc1nc2ccccc2s1)(c1ccc(O)cc1)c1ccc(O)cc1`?
Answer: GI50 (SR): 13.6 µM (inactive); GI50 (HCC 2998): 19.7 µM (inactive); GI50 (PC-3): 14.8 µM (inactive); GI50 (NCI-H23): 17.6 µM (inactive); GI50 (UO-31): 16.1 µM (inactive); GI50 (SK-MEL-5): 18.4 µM (inactive); GI50 (EKVX): 16.8 µM (inactive); GI50 (HCT-15): 18.4 µM; GI50 (SN12C): 17.9 µM (inactive); GI50 (SK-MEL-2): 17 µM (inactive); GI50 (HOP-62): 17.7 µM (inactive); GI50 (DU-145): 17.1 µM (inactive); GI50 (HCT-116): 18.2 µM (inactive); GI50 (U-251): 14.6 µM (inactive); GI50 (TK-10): 19.9 µM (inactive); GI50 (A549): 18.3 µM (inactive); GI50 (LOX IMVI): 16 µM (inactive); GI50 (786-0): 15.1 µM (inactive); GI50 (NCI-H522): 15 µM (inactive); GI50 (T47D): 24.8 µM (inactive); GI50 (A498): 20.7 µM (inactive); GI50 (CAKI-1): 20.6 µM (inactive); GI50 (HT-29): 20.1 µM (inactive); GI50 (UACC-62): 15.9 µM (inactive); GI50 (MDA-N): 16.5 µM (inactive); GI50 (OVCAR-3): 17.5 µM (inactive); GI50 (Hs-578T): 20.4 µM (inactive); GI50 (UACC-257): 15.3 µM (inactive); GI50 (SNB-19): 17.5 µM (inactive); GI50 (OVCAR-8): 21.7 µM (inactive); GI50 (HOP-92): 20.1 µM (inactive); GI50 (K562): 15.4 µM (inactive); GI50 (Malme-3M): 16.5 µM (inactive); GI50 (SF-295): 15.6 µM (inactive); GI50 (SNB-75): 18.4 µM (inactive); GI50 (MDA-MB-435): 16.1 µM (inactive); GI50 (M14): 16.1 µM (inactive); GI50 (ACHN): 18.3 µM (inactive); GI50 (IGROV-1): 14.2 µM (inactive); GI50 (OVCAR-5): 18.1 µM (inactive); GI50 (BT-549): 19.4 µM (inactive); GI50 (MDA-MB-231): 17.9 µM (inactive); GI50 (NCI-H460): 16.4 µM (inactive); GI50 (RXF 393): 18 µM (inactive); GI50 (SK-MEL-28): 19 µM (inactive); GI50 (MOLT-4): 12.7 µM (inactive); GI50 (NCI/ADR-RES): 25.4 µM (inactive); GI50 (OVCAR-4): 19.1 µM (inactive); GI50 (KM12): 15.4 µM (inactive); GI50 (SW-620): 19.8 µM (inactive); GI50 (SF-268): 20 µM (inactive); GI50 (NCI-H226): 22.3 µM (inactive)

Question: Which GI50 (SR) does the source give for `C[C@H](N)C(=O)Nc1ccc(-c2nc3ccccc3s2)cc1` here?
Answer: 15.1 µM (inactive)

Question: And the GI50 (CCRF-CEM)?
Answer: 10.2 µM (inactive)

Question: And the GI50 (HCC 2998)?
Answer: 20.9 µM (inactive)

Question: And the GI50 (PC-3)?
Answer: 20.2 µM (inactive)

Question: What about the GI50 (NCI-H23) of the same compound?
Answer: 32.2 µM (inactive)

Question: What about the GI50 (UO-31) of the same compound?
Answer: 12.3 µM (inactive)

Question: What about the GI50 (SK-MEL-5) of the same compound?
Answer: 20.1 µM (inactive)

Question: And the GI50 (EKVX)?
Answer: 11.8 µM (inactive)

Question: And the GI50 (HCT-15)?
Answer: 17.7 µM

Question: And the GI50 (SN12C)?
Answer: 24.8 µM (inactive)

Question: And the GI50 (SK-MEL-2)?
Answer: 28.6 µM (inactive)

Question: And the GI50 (HOP-62)?
Answer: 26.5 µM (inactive)

Question: What about the GI50 (DU-145) of the same compound?
Answer: 18.4 µM (inactive)

Question: And the GI50 (HCT-116)?
Answer: 15.2 µM (inactive)

Question: And the GI50 (U-251)?
Answer: 16.9 µM (inactive)

Question: What about the GI50 (TK-10) of the same compound?
Answer: 24.5 µM (inactive)

Question: What about the GI50 (A549) of the same compound?
Answer: 15.6 µM (inactive)

Question: And the GI50 (COLO 205)?
Answer: 18.6 µM (inactive)

Question: And the GI50 (SF-539)?
Answer: 36.9 µM (inactive)

Question: And the GI50 (LOX IMVI)?
Answer: 19.1 µM (inactive)

Question: What about the GI50 (786-0) of the same compound?
Answer: 15.7 µM (inactive)

Question: What about the GI50 (NCI-H522) of the same compound?
Answer: 18.5 µM (inactive)

Question: What about the GI50 (T47D) of the same compound?
Answer: 17.5 µM (inactive)

Question: What about the GI50 (A498) of the same compound?
Answer: 30.1 µM (inactive)

Question: What about the GI50 (CAKI-1) of the same compound?
Answer: 17.1 µM (inactive)

Question: And the GI50 (HT-29)?
Answer: 20.9 µM (inactive)

Question: And the GI50 (UACC-62)?
Answer: 18.5 µM (inactive)

Question: What about the GI50 (MDA-N) of the same compound?
Answer: 18.7 µM (inactive)

Question: And the GI50 (OVCAR-3)?
Answer: 18.3 µM (inactive)

Question: And the GI50 (Hs-578T)?
Answer: 37.8 µM (inactive)

Question: And the GI50 (UACC-257)?
Answer: 39.1 µM (inactive)

Question: What about the GI50 (SNB-19) of the same compound?
Answer: 22.4 µM (inactive)

Question: And the GI50 (OVCAR-8)?
Answer: 25.6 µM (inactive)

Question: And the GI50 (HOP-92)?
Answer: 26.4 µM (inactive)

Question: What about the GI50 (SK-OV-3) of the same compound?
Answer: 22.5 µM (inactive)

Question: And the GI50 (K562)?
Answer: 21.5 µM (inactive)

Question: What about the GI50 (Malme-3M) of the same compound?
Answer: 19.1 µM (inactive)

Question: What about the GI50 (SF-295) of the same compound?
Answer: 18.7 µM (inactive)

Question: And the GI50 (SNB-75)?
Answer: 18 µM (inactive)

Question: And the GI50 (MDA-MB-435)?
Answer: 16.9 µM (inactive)

Question: What about the GI50 (M14) of the same compound?
Answer: 10.9 µM (inactive)

Question: What about the GI50 (ACHN) of the same compound?
Answer: 17.4 µM (inactive)

Question: What about the GI50 (IGROV-1) of the same compound?
Answer: 15.2 µM (inactive)

Question: And the GI50 (OVCAR-5)?
Answer: 18.7 µM (inactive)

Question: And the GI50 (BT-549)?
Answer: > 100 µM (inactive)

Question: What about the GI50 (MDA-MB-231) of the same compound?
Answer: 18.4 µM (inactive)

Question: And the GI50 (NCI-H460)?
Answer: 16.9 µM (inactive)

Question: What about the GI50 (RXF 393) of the same compound?
Answer: 29.3 µM (inactive)

Question: And the GI50 (SK-MEL-28)?
Answer: 18.5 µM (inactive)

Question: And the GI50 (MOLT-4)?
Answer: 16.3 µM (inactive)

Question: What about the GI50 (NCI/ADR-RES) of the same compound?
Answer: 28.6 µM (inactive)

Question: And the GI50 (OVCAR-4)?
Answer: 16.4 µM (inactive)

Question: And the GI50 (KM12)?
Answer: 16.3 µM (inactive)

Question: And the GI50 (SW-620)?
Answer: 17.2 µM (inactive)

Question: What about the GI50 (SF-268) of the same compound?
Answer: 41.3 µM (inactive)

Question: What about the GI50 (NCI-H226) of the same compound?
Answer: 26.8 µM (inactive)

Question: Which results are given for `O=C(c1ccccc1)C1C(C(=O)c2ccccc2)N1Cc1ccccc1` (stereo unspecified)?
Answer: GI50 (CCRF-CEM): 36.6 µM (inactive); GI50 (HCC 2998): 48.3 µM (inactive); GI50 (PC-3): 23.4 µM (inactive); GI50 (NCI-H23): 37.8 µM (inactive); GI50 (UO-31): 36.8 µM (inactive); GI50 (SK-MEL-5): 20 µM (inactive); GI50 (EKVX): 28.3 µM (inactive); GI50 (HCT-15): 57.3 µM; GI50 (SN12C): 21.4 µM (inactive); GI50 (SK-MEL-2): 17.5 µM (inactive); GI50 (HOP-62): 30.5 µM (inactive); GI50 (DU-145): 24.4 µM (inactive); GI50 (U-251): 27.6 µM (inactive); GI50 (TK-10): 46.9 µM (inactive); GI50 (A549): 24.2 µM (inactive); GI50 (COLO 205): 24.3 µM (inactive); GI50 (LOX IMVI): 31.2 µM (inactive); GI50 (786-0): 34.8 µM (inactive); GI50 (NCI-H522): 24.5 µM (inactive); GI50 (T47D): 11.6 µM (inactive); GI50 (A498): 33 µM (inactive); GI50 (CAKI-1): 75.3 µM (inactive); GI50 (HT-29): 36.5 µM (inactive); GI50 (UACC-62): 15.7 µM (inactive); GI50 (MDA-N): 13.5 µM (inactive); GI50 (OVCAR-3): 27.8 µM (inactive); GI50 (Hs-578T): 32.3 µM (inactive); GI50 (UACC-257): 38.6 µM (inactive); GI50 (SNB-19): 37 µM (inactive); GI50 (OVCAR-8): 32.4 µM (inactive); GI50 (HOP-92): 26 µM (inactive); GI50 (SK-OV-3): 27.5 µM (inactive); GI50 (RPMI-8226): 48.9 µM (inactive); GI50 (K562): 27.9 µM (inactive); GI50 (Malme-3M): 34.4 µM (inactive); GI50 (SF-295): 39.7 µM (inactive); GI50 (SNB-75): 13.9 µM (inactive); GI50 (MDA-MB-435): 21.8 µM (inactive); GI50 (M14): 28.6 µM (inactive); GI50 (ACHN): 41.9 µM (inactive); GI50 (IGROV-1): 49.8 µM (inactive); GI50 (OVCAR-5): > 100 µM (inactive); GI50 (BT-549): 25.9 µM (inactive); GI50 (MDA-MB-231): 26.1 µM (inactive); GI50 (NCI-H460): 29.2 µM (inactive); GI50 (SK-MEL-28): 32.7 µM (inactive); GI50 (MOLT-4): 40.6 µM (inactive); GI50 (NCI/ADR-RES): 33.5 µM (inactive); GI50 (OVCAR-4): 39.9 µM (inactive); GI50 (KM12): 27.8 µM (inactive); GI50 (SW-620): 44.1 µM (inactive); GI50 (SF-268): 37.1 µM (inactive); GI50 (NCI-H226): 32.6 µM (inactive)
